In patent publication US20090068243A1, “Novel formulations for delivery of antiviral peptide therapeutics” (priority 2007, published 2009):

Key:
HIV-IIIB = details: 50% reduction in infectious virus titer
From the text: Assessment of biological properties included measurement of antiviral activity against HIV-1 strains. […] These assays score for reduction of infectious virus titer employing the indicator cell lines MAGI or the CCR5 expressing derivative cMAGI. Both cell lines exploit the ability of HIV-1 tat to transactivate the expression of a β-galactosidase reporter gene driven by the HIV-LTR. The β-gal reporter has been modified to localize in the nucleus and can be detected with the X-gal substrate as intense nuclear staining within a few days of infection. The number of stained nuclei can thus be interpreted as equal to the number of infectious virions in the challenge inoculum if there is only one round of infection prior to staining. […] In the MAGI and cMAGI assays, a 50% reduction in infectious titer (Vn/Vo=0.5) is significant, and provides the primary cutoff value for assessing antiviral activity (“IC50” is defined as the concentration of active ingredient resulting in a 50% reduction in infectious virus titer). […] The number of infected cells for each control and peptide dilution was determined with the CCD-imager, and then the IC50 was calculated (expressed in μg/ml).

HIV-Res = format: cell-based, HIV-1; details: resistant viral isolate "Res"
From the text: Assessment of biological properties included measurement of antiviral activity against HIV-1 strains. In determining antiviral activity (e.g., one measure being the ability to inhibit transmission of HIV to a target cell) of the HIV fusion inhibitor peptides, an in vitro assay which has been shown, by data generated using peptides derived from the HR regions of HIV gp41, to be predictive of antiviral activity observed in vivo was used. […] These assays score for reduction of infectious virus titer employing the indicator cell lines MAGI or the CCR5 expressing derivative cMAGI. Both cell lines exploit the ability of HIV-1 tat to transactivate the expression of a β-galactosidase reporter gene driven by the HIV-LTR. The β-gal reporter has been modified to localize in the nucleus and can be detected with the X-gal substrate as intense nuclear staining within a few days of infection. […] The number of infected cells for each control and peptide dilution was determined with the CCD-imager, and then the IC50 was calculated (expressed in μg/ml).
Viruses resistant to the antiviral activity of a peptide consisting of a base sequence can be produced using standard laboratory methods. […] The cultures are maintained and monitored until syncytia are present. […] The second round of culture is maintained and monitored for presence of virus resistant to the antiviral activity of the peptide. […]

Ac-TTWEAWDRAIAEYAARIEALLRALQEQQEKNEAALREL-NH2 [SEQ ID NO:9, TTWEAWDRAIAEYAARIEALLRALQEQQEKNEAALREL]
Antiviral Activity (μg/ml) HIV-IIIB IC50 (HIV-IIIB): <0.10 µg/mL
Antiviral Activity (μg/ml) HIV-Res IC50 (HIV-Res): <0.10 µg/mL
